PubChem BioAssay (NCI)
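Dose response: 5 concentrations. Exposure: 48 h. Format: 96-well plates. Endpoint: linear interpolation; highest concentration if not reached. TGI marks complete inhibition of growth.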

Assays:
Experiment in all cases: inhibition of tumour cell growth, NCI panel, 48 h
[1] = system: A498 renal
[2] = system: NCI-H460 lung
[3] = system: SF-539 CNS
[4] = system: MDA-N
[5] = system: RXF 393 renal
[6] = system: OVCAR-4 ovarian
[7] = system: NCI/ADR-RES ovarian
[8] = system: HOP-62 NSCLC
[9] = system: SNB-19 CNS
[10] = system: HS 578T breast
[11] = system: MDA-MB-231 breast
[12] = system: MOLT-4 leukemia
[13] = system: SN12C renal
[14] = system: M14 melanoma
[15] = system: PC-3 prostate
[16] = system: CAKI-1 renal
[17] = system: HCT-15 colon
[18] = system: OVCAR-5 ovarian
[19] = system: OVCAR-3 ovarian
[20] = system: LOX IMVI melanoma
[21] = system: EKVX NSCLC
[22] = system: UACC-62 melanoma
[23] = system: RPMI-8226 leukemia
[24] = system: HOP-92 NSCLC
[25] = system: DU-145 prostate
[26] = system: COLO 205 colon
[27] = system: SW-620 colon
[28] = system: A549 NSCLC
[29] = system: SF-295 CNS
[30] = system: HCC-2998 colon
[31] = system: T-47D breast
[32] = system: SK-MEL-2 melanoma
[33] = system: SR leukemia
[34] = system: UO-31 renal
[35] = system: MALME-3M melanoma
[36] = system: OVCAR-8 ovarian
[37] = system: ACHN renal
[38] = system: TK-10 renal
[39] = system: SK-MEL-28 melanoma
[40] = system: SF-268 CNS
[41] = system: SK-MEL-5 melanoma
[42] = system: MCF7 breast
[43] = system: K-562 leukemia
[44] = system: SK-OV-3 ovarian
[45] = system: KM12 colon
[46] = system: IGROV1 ovarian
[47] = system: NCI-H226 lung
[48] = system: U251 CNS
[49] = system: NCI-H23 lung
[50] = system: NCI-H522 lung
[51] = system: BT-549 breast
[52] = system: HCT-116 colon
[53] = system: 786-0 renal
[54] = system: UACC-257 melanoma
[55] = system: MDA-MB-435
[56] = system: HT29 colon
[57] = system: CCRF-CEM leukemia
[58] = system: SNB-75 CNS

## C=CCSC1=N/C(=C\c2cccs2)C(=O)N1CC=C
[1]
  TGI: 95.3 µM
[2]
  TGI: > 100 µM
[3]
  TGI: > 100 µM
[4]
  TGI: > 100 µM
[5]
  TGI: 64.2 µM
[6]
  TGI: > 100 µM
[7]
  TGI: > 100 µM
[8]
  TGI: > 100 µM
[9]
  TGI: > 100 µM
[10]
  TGI: > 100 µM
[11]
  TGI: > 100 µM
[12]
  TGI: 62.2 µM
[13]
  TGI: > 100 µM
[14]
  TGI: > 100 µM
[15]
  TGI: > 100 µM
[16]
  TGI: > 100 µM
[17]
  TGI: > 100 µM
[18]
  TGI: > 100 µM
[19]
  TGI: > 100 µM
[20]
  TGI: > 100 µM
[21]
  TGI: 71.4 µM
[22]
  TGI: > 100 µM
[23]
  TGI: 91.3 µM
[24]
  TGI: 57 µM
[25]
  TGI: > 100 µM
[26]
  TGI: > 100 µM
[27]
  TGI: > 100 µM
[28]
  TGI: > 100 µM
[29]
  TGI: > 100 µM
[30]
  TGI: > 100 µM
[31]
  TGI: 69.3 µM
[32]
  TGI: > 100 µM
[33]
  TGI: > 100 µM
[34]
  TGI: > 100 µM
[35]
  TGI: > 100 µM
[36]
  TGI: > 100 µM
[37]
  TGI: > 100 µM
[38]
  TGI: > 100 µM
[39]
  TGI: > 100 µM
[40]
  TGI: > 100 µM
[41]
  TGI: > 100 µM
[42]
  TGI: > 100 µM
[43]
  TGI: > 100 µM
[44]
  TGI: > 100 µM
[45]
  TGI: > 100 µM
[46]
  TGI: > 100 µM
[47]
  TGI: > 100 µM
[48]
  TGI: > 100 µM
[49]
  TGI: > 100 µM
[50]
  TGI: > 100 µM
[51]
  TGI: > 100 µM
[52]
  TGI: > 100 µM
[53]
  TGI: > 100 µM
[54]
  TGI: > 100 µM
[55]
  TGI: > 100 µM
[56]
  TGI: > 100 µM

## c1ccc(CNCCCCNCCCNCc2ccccc2)cc1
[2]
  TGI: 30.2 µM
[4]
  TGI: 26.3 µM
[5]
  TGI: 32.7 µM
[6]
  TGI: 38.2 µM
[7]
  TGI: > 100 µM
[8]
  TGI: 60.8 µM
[9]
  TGI: 32.7 µM
[10]
  TGI: 29.7 µM
[11]
  TGI: 33.2 µM
[57]
  TGI: 32.4 µM
[12]
  TGI: 33.2 µM
[13]
  TGI: 36.4 µM
[14]
  TGI: 86.5 µM
[15]
  TGI: 28.8 µM
[16]
  TGI: 40.3 µM
[17]
  TGI: 39.4 µM
[18]
  TGI: > 100 µM
[19]
  TGI: 54.7 µM
[20]
  TGI: 32.7 µM
[21]
  TGI: 57.3 µM
[22]
  TGI: 32.4 µM
[23]
  TGI: > 100 µM
[24]
  TGI: 25.3 µM
[25]
  TGI: 49.3 µM
[26]
  TGI: 27.6 µM
[27]
  TGI: 31.8 µM
[28]
  TGI: 36.2 µM
[29]
  TGI: > 100 µM
[30]
  TGI: 31.3 µM
[31]
  TGI: > 100 µM
[32]
  TGI: > 100 µM
[33]
  TGI: 56.1 µM
[34]
  TGI: 52.4 µM
[35]
  TGI: 30.2 µM
[58]
  TGI: 49.4 µM
[37]
  TGI: 29.3 µM
[38]
  TGI: 77.4 µM
[39]
  TGI: 31.2 µM
[40]
  TGI: 51.8 µM
[41]
  TGI: 32.5 µM
[42]
  TGI: > 100 µM
[43]
  TGI: 34.2 µM
[44]
  TGI: > 100 µM
[45]
  TGI: 40.5 µM
[46]
  TGI: 26.7 µM
[47]
  TGI: 41.4 µM
[48]
  TGI: 35.7 µM
[49]
  TGI: 47.4 µM
[50]
  TGI: 31 µM
[51]
  TGI: 33.6 µM
[52]
  TGI: 32.2 µM
[53]
  TGI: 31.4 µM
[54]
  TGI: 32 µM
[55]
  TGI: 34.7 µM
[56]
  TGI: 31 µM
